Reference: US20110172193A1, “PRO-DRUGS OF (E)-7-(3-(2-AMINO-1-FLUOROETHYLIDENE)PIPERIDIN-1-YL)-1-CYCLOPROPYL-6-FLUORO-8-METHOXY-4-OXO-1,4-DIHYDROQUINOLINE-3-CARBOXYLIC ACID” (priority 2010, published 2011)
Where two headings read alike, the source gives them in different places.

Key:
[1] = In vitro bioconversion of pro-drug to parent drug in human blood and plasma; type: in vitro ADME; conditions: for Peak Area of pro-drug: 37° C.; for Conversion to the parent compound (summary in words): human whole blood and plasma
Method: Compounds #1, #4, #6, #15, and #16, as well as the parent drug [(E)-7-(3-(2-amino-1-fluoroethylidene)piperidin-1-yl)-1-cyclopropyl-6-fluoro-8-methoxy-4-oxo-1,4-dihydroquinoline-3-carboxylic acid] (the compound of formula (M)) were dissolved to 1 mg/mL, and diluted to 20 ng/mL in fresh, chilled (4° C.) human or mouse whole blood or plasma, or kidney and liver extract (prepared from the respective fresh mouse organs as described below). Compound concentrations were normalized to parent drug content by multiplying by a ratio of the relative molecular weights. Time 0 (minute) samples were prepared by immediately diluting with an equal volume of acetonitrile, vortexing, and transferring the samples to ice. For additional time points, samples were placed in an incubator (Tables 4 and 5), or in a heating block (Tables 6-12) at 37° C. for the indicated time, then immediately vortexed with an equal volume of acetonitrile and placed on ice. Samples were centrifuged and further diluted with an equal volume of water to a final concentration of 25% acetonitrile prior to analysis by HPLC; diluted samples were retained in the cooled (4° C.) HPLC sample injection chamber pending injection.
Representative compounds of the present invention and the parent compound were analyzed by reversed-phase HPLC using an Agilent 1100 system. Samples were injected onto a Zorbax SB-C18 column (3.5 μM, 4.6×150 mm) with a guard cartridge, and developed on a gradient of 15% aqueous acetonitrile in 0.1% trifluoroacetic acid to 85% aqueous acetonitrile in 0.1% trifluoroacetic acid over 10 minutes. The solvent flow rate was 1 mL/min, and the column temperature was 40° C. Compound and parent peak identification was by diode array detection, monitored at 300 nm Conversion of the compounds (prodrugs) to parent drug was estimated by peak areas (A300 nm, mAU) of the respective agents.
For studies with Compounds #1, #4 and #6 (with results as listed in Tables 8, 9 and 10), fresh human whole blood and plasma samples were purchased from BioChemed Services, shipped in Styrofoam coolers maintained with frozen cold packs, and used within 48 hours of receipt. For studies with Compounds #15 and #16 (with results as listed in Tables 11 and 12), blood was drawn from volunteers and whole blood samples and isolated plasma prepared and immediately placed on ice. Whole blood and plasma samples were maintained at 4° C. and used within approximately 30 hours.

[2] = system: Staphylococcus aureus (OC8525), a methicillin-resistant strain (MRSA); assay: In vivo efficacy in a mouse systemic infection model; conditions: for ED50: Staphylococcus aureus, 72 h, Swiss Webster mice infected i.p. with MRSA, 3 day survival, normalized to parent content
Method: Female Swiss Webster mice weighing between 20-25 g were infected intraperitoneally with approximately 5×10^5 colony forming units (CFU) Staphylococcus aureus (OC8525), a methicillin-resistant strain (MRSA), in 7% mucin. One hour later, the animals were given the test compound intravenously or orally in a dose volume of 0.2 mL. Each animal test group consisted of eight animals. The test compounds were prepared immediately before dosing in 5% dextrose in water (D5W) and diluted further in D5W for i.v. and p.o. administration. The mice were observed over a three day period and ED50 values were calculated from the resulting % survival curves (see Table 13, below). The measured ED50 values were normalized to the content of (E)-7-(3-(2-amino-1-fluoroethylidene)piperidin-1-yl)-1-cyclopropyl-6-fluoro-8-methoxy-4-oxo-1,4-dihydroquinoline-3-carboxylic acid. For some compounds, in vivo efficacy was determined by testing a group of eight mice at a single dose level only. In these cases, the data presented in Table 13, below are reported as percent survival at the designated dose.

[3] = Clarity of test compound solutions at […] (aqueous solubility); conditions: for solubility at 24 h: 50 mM citrate buffer, pH 4, aqueous buffer, thermodynamic from solid; for Aqueous Solubility pH~7 (visual clarity): […] active-form equivalents, pH 7 (50 mM phosphate), after 24 hours
Method: A 50-mg/mL solution of a compound of formula (I) or a compound of formula (II) in H2O was titrated with 0.1 M NaOH until pH reached 5.7-6.1. Any solid that precipitated was filtered. The remaining solutions or phase-separated oil/H2O mixtures were freeze-dried to produce zwitterions as fluffy solids.
The aqueous solubility of Compounds #14, #15 and #16 were determined by a modified procedure. In these cases, the samples were targeted at a pH of 4 and 7 and were measured exclusively using 100 mM phosphate buffers. For both pH's, measured samples were initially prepared at ˜3 mg/ml and ˜10 mg/ml concentrations and for samples that dissolved rapidly, additional compound was added to the solution until saturated solutions were obtained.

[4] = In vitro bioconversion of pro-drug to parent drug in mouse blood, plasma, liver and kidney extract; type: in vitro ADME; conditions: for Peak Area of pro-drug: 37° C. incubator; for Conversion to the parent compound (summary in words): mouse whole blood, liver/kidney extracts, plasma
Method: Compound concentrations were normalized to parent drug content by multiplying by a ratio of the relative molecular weights. Time 0 (minute) samples were prepared by immediately diluting with an equal volume of acetonitrile, vortexing, and transferring the samples to ice. […] Representative compounds of the present invention and the parent compound were analyzed by reversed-phase HPLC using an Agilent 1100 system. […] The solvent flow rate was 1 mL/min, and the column temperature was 40° C. Compound and parent peak identification was by diode array detection, monitored at 300 nm Conversion of the compounds (prodrugs) to parent drug was estimated by peak areas (A300 nm, mAU) of the respective agents. Mouse whole blood and plasma were collected from Swiss Webster mice, and stored at 4° C. until use (within 48 hours). […] For these experiments, fresh whole mouse livers or kidneys were homogenized for approximately 30 seconds (Omni-Tip™ disposable homogenizer tip) in 1 mL sterile saline and immediately stored on ice. Crude extracts (non-centrifuged) were incubated with the test compound or parent (20 μg/mL) and processed as described above.

[5] = Aqueous solubility, modified procedure (saturated solutions, RP-HPLC); type: physicochemical; conditions: thermodynamic from solid, 100 mM phosphate buffer
[6] = fresh human blood (purchased), 0.0 min
[7] = fresh human plasma (purchased), 0.0 min
[8] = fresh human plasma (purchased), 5.0 min
[9] = fresh human plasma (purchased), 15.0 min
[10] = fresh human plasma (purchased), 30.0 min
[11] = oral dose 1 h later, read-out: ED50 p.o.
[12] = iv, i.v. dose 1 h later, read-out: ED50 i.v.
[13] = homogenized mouse kidney, 0 min
[14] = homogenized mouse kidney, 5 min
[15] = homogenized mouse kidney, 30 min
[16] = homogenized mouse liver, 30 min

| Peak Area of pro-drug [1, 6] | Peak Area of pro-drug [1, 7] | Peak Area of pro-drug [1, 8] | Peak Area of pro-drug [1, 9] | Peak Area of pro-drug [1, 10] | Conversion to the parent compound (summary in words) [1] | solubility at 24 h [3] | Aqueous Solubility pH~7 (visual clarity) [3] | Peak Area of pro-drug ([4]; fresh mouse plasma, 0 min) | Peak Area of pro-drug ([4]; fresh mouse plasma, 5 min) | Peak Area of pro-drug ([4]; fresh mouse plasma, 30 min) | Peak Area of pro-drug [4, 13] | Peak Area of pro-drug [4, 14] | Peak Area of pro-drug [4, 15] | Peak Area of pro-drug ([4]; homogenized mouse liver, 0 min) | Peak Area of pro-drug ([4]; homogenized mouse liver, 5 min) | Peak Area of pro-drug [4, 16] | Conversion to the parent compound (summary in words) [4] | SMILES | ED50 [2, 11] | ED50 [2, 12] | other results |
| --- | --- | --- | --- | --- | --- | --- | --- | --- | --- | --- | --- | --- | --- | --- | --- | --- | --- | --- | --- | --- | --- |
| 365 mAU | 401 mAU | 386 mAU | 369 mAU | 371 mAU | converted to the parent compound | < 3.3 mg/mL | No | 298 mAU | 296 mAU | 286 mAU | 222 mAU | 152 mAU | 41 mAU | 235 mAU | 171 mAU | 51 mAU | converted to the parent compound | COc1c(N2CCC/C(=C(\F)CNC(=O)[C@@H](N)C(C)C)C2)c(F)cc2c(=O)c(C(=O)O)cn(C3CC3)c12.Cl [Compound 1, 7-{3-[2-((2S)-2-Amino-3-methyl-butyrylamino)-1-fluoro-ethylidene]-piperidin-1-yl}-1-cyclopropyl-6-fluoro-8-methoxy-4-oxo-1,4-dihydro-quinoline-3-carboxylic acid hydrochloride] | 9.9 mg/kg | 1.3 mg/kg | Peak Area of pro-drug ([1]; fresh human blood (purchased), 3.0 min): 339 mAU; Peak Area of pro-drug ([1]; fresh human blood (purchased), 5.5 min): 339 mAU; Peak Area of pro-drug ([1]; fresh human blood (purchased), 8.0 min): 328 mAU; Peak Area of pro-drug ([1]; fresh human blood (purchased), 10.5 min): 289 mAU; Peak Area of pro-drug ([1]; fresh human blood (purchased), 15.5 min): 256 mAU |
|  |  |  |  |  |  |  |  |  |  |  |  |  |  |  |  |  |  | COc1c(N2CCC/C(=C(\F)CNC(=O)[C@@H](N)CN(C)C)C2)c(F)cc2c(=O)c(C(=O)O)cn(C3CC3)c12.Cl.Cl [Compound 14, 7-{3-[2-((2S)-2-Amino-3-dimethylamino-propionylamino)-1-fluoro-ethylidene]-piperidin-1-yl}-1-cyclopropyl-6-fluoro-8-methoxy-4-oxo-1,4-dihydro-quinoline-3-carboxylic acid dihydrochloride] |  |  | % Survival ([2]; i.v., at 2.0 mg/kg/day, mice): 12.5% at 2.0 mg/kg/day; solubility at 18 h ([5]; pH 4, aqueous buffer, read-out: Aqueous Solubility pH~4): 6.89 mg/mL; solubility at 18 h ([5]; pH 7, aqueous buffer, read-out: Aqueous Solubility pH~7): > 3 mg/mL |
| 401 mAU | 442 mAU | 383 mAU | 339 mAU | 268 mAU | converted to the parent compound | > 3.3 mg/mL | No |  |  |  |  |  |  |  |  |  | converted to the parent compound | COc1c(N2CCC/C(=C(\F)CNC(=O)[C@H](C)N)C2)c(F)cc2c(=O)c(C(=O)O)cn(C3CC3)c12.Cl [Compound 4, 7-{3-[2-((2S)-2-Amino-propionylamino)-1-fluoro-ethylidene]-piperidin-1-yl}-1-cyclopropyl-6-fluoro-8-methoxy-4-oxo-1,4-dihydro-quinoline-3-carboxylic acid hydrochloride] | 19.8 mg/kg | 0.7 mg/kg | Peak Area of pro-drug ([1]; fresh human blood (purchased), 4.0 min): 205 mAU; Peak Area of pro-drug ([1]; fresh human blood (purchased), 6.5 min): 123 mAU; Peak Area of pro-drug ([1]; fresh human blood (purchased), 9.0 min): 79 mAU; Peak Area of pro-drug ([1]; fresh human blood (purchased), 11.5 min): 84 mAU; Peak Area of pro-drug ([1]; fresh human blood (purchased), 16.5 min): 68 mAU |
| 369 mAU | 393 mAU | 386 mAU | 399 mAU | 393 mAU | converted to the parent compound | < 3.3 mg/mL | No | 363 mAU | 329 mAU | 281 mAU | 219 mAU | 72 mAU | 11 mAU | 254 mAU | 143 mAU | 34 mAU | converted to the parent compound | COc1c(N2CCC/C(=C(\F)CNC(=O)CN)C2)c(F)cc2c(=O)c(C(=O)O)cn(C3CC3)c12.Cl [Compound 6, 7-{3-[2-(2-Amino-acetylamino)-1-fluoro-ethylidene]-piperidin-1-yl}-1-cyclopropyl-6-fluoro-8-methoxy-4-oxo-1,4-dihydro-quinoline-3-carboxylic acid hydrochloride] | > 17.6 mg/kg | 0.6 mg/kg | Peak Area of pro-drug ([1]; fresh human blood (purchased), 3.5 min): 290 mAU; Peak Area of pro-drug ([1]; fresh human blood (purchased), 6.0 min): 188 mAU; Peak Area of pro-drug ([1]; fresh human blood (purchased), 8.5 min): 159 mAU; Peak Area of pro-drug ([1]; fresh human blood (purchased), 11.0 min): 134 mAU; Peak Area of pro-drug ([1]; fresh human blood (purchased), 16.0 min): 95 mAU |
